Patent EP2881399B1, “New thiosemicarbazone chelates having anticancer activity” (priority 2013, dated 2015)

Assays:
Type in all cases: cell-based
K562 (leukaemia) cells = experiment: cytotoxicity test (MTT), IC50 after 72 hours incubation
Method: (§1) IC50 (the concentration inhibiting the proliferation of 50% of cells) of these 4 new compounds presented is identified by cytotoxicity tests in K562 (leukaemia) and ECV304 (endothelial) cells. Subsequently, it is studied to understand pathway through which the death of the cells is occurred (the mechanism of action) after the cells are treated for 72 hours at these concentrations. The apoptosis is analysed with immununocytochemical methods and flow cytometry and DNA fragmentation is analysed with diphenylamine reaction. […] DNA fragmentation is found high in all experiment groups (70-80%). These rates are compatible with IC50 obtained with MTT test because IC50 is the dose which kills the 50% of the cells. […] Furthermore, this rate is compatible with the percentage of total dead cells (52-64 %) which is the addition of apoptotic and necrotic cells obtained by annexin/PI dyeing.

[1] = tested on: ECV304 (endothelial) cells; experiment: as above; details: incubated for 72 hours
Method: as §1

K562 cells = experiment: flow cytometry with Annexin V and PI dyeing (apoptosis / necrosis); details: K562, 72 hours at IC50 concentration; for Living cell (%) / Necrotic cell (%) / Post- apoptotic cell (%) / Pre- apoptotic cell (%): Annexin V and PI; for Dead cell (%): addition of apoptotic and necrotic cells
Method: The Figure 2 gives the flow cytometry images of K562 cells, undergoing pre-apoptosis, post-apoptosis and necrosis, which are dyed with Annexin V and PI, after being incubated with thiosemicarbazones of the invention for 72 hours. Herein the images are as follows; A) Control, B) Compound I (0.6µg/ml), C) Compound II (0.6µg/ml), D) […], and E) Compound IV (0.1µg/ml). […] The inventors have characterized cells treated with compounds I-IV in the conditions of Figure 2 in order to better observe the mechanism of action of thiosemicarbazones presented in the current invention.

ECV304 = experiment: DNA fragmentation by diphenylamine reaction; details: ECV304, end of 72 hours at identified IC50 concentrations
Method: (§2) IC50 (the concentration inhibiting the proliferation of 50% of cells) of these 4 new compounds presented is identified by cytotoxicity tests in K562 (leukaemia) and ECV304 (endothelial) cells. Subsequently, it is studied to understand pathway through which the death of the cells is occurred (the mechanism of action) after the cells are treated for 72 hours at these concentrations. The apoptosis is analysed with immununocytochemical methods and flow cytometry and DNA fragmentation is analysed with diphenylamine reaction. […] The inventors also analysed DNA fragmentation rates occurred in cells at the end of 72 hours at identified IC50 concentrations.

K562 = experiment: DNA fragmentation by diphenylamine reaction; details: K562, end of 72 hours at identified IC50 concentrations
Method: as §2

[2] = K562, as listed in Table 3, rounded, the concentration applied in the flow cytometry
[3] = K562 cells, incubated for 72 hours

COc1ccc2c(c1)[O][Ni][O]c1c(O)cccc1C=NN=C(SC)N=C2 [Compound I, N(1)-3-hydroxysalicylidene-N(4)-4-methoxysalicylideneisothio-semicarbazidato Nickel (II)]
IC50 (K562 (leukaemia) cells; [2]): 0.6 µg/mL
IC50 (K562 (leukaemia) cells; [3]): 0.61 microgram/ml
IC50 [1]: >5 microgram/ml
Apoptosis / Necrosis ratio (K562 cells): 13.56
Living cell (%) (K562 cells): 35.18%
Necrotic cell (%) (K562 cells): 2.57%
Post- apoptotic cell (%) (K562 cells): 27.39%
Pre- apoptotic cell (%) (K562 cells): 34.85%
Dead cell (%) (K562 cells): 64.82%
DNA fragmentation % (ECV304): 20±0.5%
DNA fragmentation % (K562): 80±1.4%

COc1ccc2c(c1)[O][Fe]([Cl])[O]c1cc(O)ccc1C=NN=C(SC)N=C2 [Compound IV, Monochloro-N(1)-4-hydroxysalicylidene-N(4)-4-methoxy-salicylideneisothiosemicarbazidato Iron (III)]
IC50 (K562 (leukaemia) cells; [2]): 0.1 µg/mL
IC50 (K562 (leukaemia) cells; [3]): 0.1 microgram/ml
IC50 [1]: >5 microgram/ml
Apoptosis / Necrosis ratio (K562 cells): 17.77
Living cell (%) (K562 cells): 41.07%
Necrotic cell (%) (K562 cells): 2.11%
Post- apoptotic cell (%) (K562 cells): 19.32%
Pre- apoptotic cell (%) (K562 cells): 37.5%
Dead cell (%) (K562 cells): 58.93%
DNA fragmentation % (ECV304): 28±2.4%
DNA fragmentation % (K562): 84±1.4%

COc1ccc2c(c1)[O][Ni][O]c1cc(O)ccc1C=NN=C(SC)N=C2 [III, N(1)-4-hydroxysalicylidene-N(4)-4-methoxysalicylideneisothio-semicarbazidato Nickel (II)]
IC50 (K562 (leukaemia) cells; [2]): 0.6 µg/mL
IC50 (K562 (leukaemia) cells; [3]): 0.65 microgram/ml
IC50 [1]: >5 microgram/ml
Apoptosis / Necrosis ratio (K562 cells): 11.82
Living cell (%) (K562 cells): 36.11%
Necrotic cell (%) (K562 cells): 3.17%
Post- apoptotic cell (%) (K562 cells): 23.23%
Pre- apoptotic cell (%) (K562 cells): 37.5%
Dead cell (%) (K562 cells): 63.89%
DNA fragmentation % (ECV304): 22±1.7%
DNA fragmentation % (K562): 75±1.4%

Monochloro-N(1)-3--hydroxysalicylidene-N(4)-4-methox salicylideneisothiosemicarbazidato Iron (III) [Compound II]
IC50 (K562 (leukaemia) cells; [2]): 0.6 µg/mL
IC50 (K562 (leukaemia) cells; [3]): 0.62 microgram/ml
IC50 [1]: >5 microgram/ml
Apoptosis / Necrosis ratio (K562 cells): 9.80
Living cell (%) (K562 cells): 47.4%
Necrotic cell (%) (K562 cells): 3.15%
Post- apoptotic cell (%) (K562 cells): 18.54%
Pre- apoptotic cell (%) (K562 cells): 30.9%
Dead cell (%) (K562 cells): 52.6%
DNA fragmentation % (ECV304): 18±2.1%
DNA fragmentation % (K562): 79±0.7%
